Results from patent publication US20090221538A1, “METHODS OF TREATING MULTIPLE SCLEROSIS BY ADMINISTERING PULSE DOSE CALCITRIOL” (priority 2008, published 2009).

Legend:
[1] = test system: B10.PL mice with acute EAE; assay: Treatment of MBP-induced acute EAE in B10.PL mice, daily clinical EAE disability score; format: in vivo; set-up: key to cumulative disability (sum of daily disability scores; mean) / Cumulative disability / EAE severity (initial) / Remission (minimum) / EAE severity (final) / EAE severity (decrease): EAE score 0 = normal to 5 = moribund; cumulative = sum of daily scores
Method: Breeding pairs of B10.PL-H2^uH2-T18^a/(73NS)/SnJ (hereafter B10.PL) mice were purchased from the Jackson Laboratory (Bar Harbor, Me.). The experimental B10.PL mice were either bred in the pathogen-free mouse colony at the University of Wisconsin Department of Biochemistry, or purchased from the Jackson Laboratory. Mice were housed at 23° C. with 40-60% humidity, 12 hr light-dark cycles, and ad libidum access to water. Unless stated otherwise, the mice were fed Lab Diet #5008 (PMI Nutrition International, Inc., Brentwood, Mo.) containing 0.33 μg/d vitamin D3 and 1% calcium. Experiments used male and female mice aged 6-8 wks (age- and sex-matched within experiments). The University of Wisconsin College of Agricultural and Life Sciences Institutional Animal Care and Use Committee approved all of the experimental protocols.
Bovine myelin basic protein (Sigma Chemical Co., St. Louis, Mo.) was dissolved at 2 mg/mL in 0.1 N acetic acid and emulsified with Complete Freund's adjuvant containing heat-killed Mycobacterium tuberculosis H37 Ra solution (Difco). Each mouse was injected subcutaneously with 0.1 mL emulsion in each hind flank (400 micrograms of MBP per mouse). On the day of immunization and again 2 days later, 200 nanograms of pertussis toxin was injected into the peritoneum. Thereafter, clinical EAE signs were scored daily as follows: 0, normal; 1, limp tail; 1.5, partial paralysis of one hind limb; 2, partial paralysis of both hind limbs; 2.5 partial paralysis of one hind limb and complete paralysis of one hind limb; 3, paralysis of both hind limbs; 4, hind and fore limb paralysis; 5, moribund.
The vitamin D3 and 1,25-(OH)2D3 were obtained from Sigma Chemical Co. The vitamin D3 was dissolved in safflower oil and stored in the dark at 5° C. The 1,25-(OH)2D3 was dissolved in 100% ethanol (1 mg/mL) and stored in the dark under nitrogen gas at −20° C. The concentration of 1,25-(OH)2D3 was determined by spectral analysis. Animals with stage 2.3±0.3 were randomized into treatment groups. The details of the treatments are given in the figure legends and table footnotes. The synthetic diet used in some experiments was formulated to contain all essential nutrients except vitamin D3 and was prepared exactly as we described (Spach and Hayes, 2005, J. Immunol. 175:4119-4126). For experiments using supplementary vitamin D3, the placebo group was fed the synthetic diet ad libidum without added vitamin D3, whereas the vitamin D3-supplemented group was fed the synthetic diet ad libidum with vitamin D3 added in an amount to provide 1 μg/d, calculated based on a daily measured consumption of 4.0 g dry weight of diet per mouse. Fresh synthetic diet was provided three times per week. At several times during the study, mice were weighed and blood samples were obtained from the tail vein. At the conclusion of the study, the mice were euthanized, a blood sample was obtained, perfusion was done, and the spinal cords and optic nerves were removed. The spinal cords were flash frozen with liquid nitrogen and stored at −70° C. prior to 1,25-(OH)2D3 extraction. Alternatively, the spinal cords were divided into 6 equal sections, aligned vertically, snap frozen in O.C.T. compound (Sakura Finetek USA, Torrance, Calif.) and stored at −70° C. for histopathology. The blood was clotted, centrifuged, and the decanted serum was frozen at −70° C. prior to analysis.
Individual mice were analyzed and the mean and SD were calculated for each group of mice. Experiments were repeated at least once. The significance of differences between the group means was determined using the Mann-Whitney test (n≦16), Student's t-test (n>16), or Chi-squared test (binomial data); p<0.05 was considered significant.

Serum calcium analysis = format: in vivo, mouse; settings: mice with EAE, 1 μg/day vitamin D3, end of the 28 day study
Method: Blood was collected, clotted, and centrifuged (2,000×g for 10 min) at 6° C. The serum was decanted and stored at −20° C. The samples, standards, and buffer blanks (2 μL each) were aliquoted into duplicate wells of a 96-well plate. The calcium detection reagent was prepared according to the manufacturer's directions (Sigma Diagnostics. St. Louis, Mo.), and 0.25 mL was added to each well. The absorbance at 570 nm less the blank was measured 10 to 30 min later. The Ca^++ mmol/L serum was determined from a standard curve.

[2] = Serum 25-(OH)D3 radioimmunoassay; settings: mice with EAE (score 1.5±0.5), 1 μg/day vitamin D3, end of the 28 day study
Method: The serum was extracted and the 25-(OH)D3 (DiaSorin, Stillwater, Minn.) and calcitriol (Nichols Institute Diagnostics, San Juan Capistrano, Calif.) concentrations were determined in duplicate with radioimmunoassay kits according to the manufacturer's protocols.

MS = settings: cited from earlier work
[3] = female and male B10.PL mice, chow-fed, 0.5 (female) or 1.0 (male) nmol injected once, 14 days post treatment

In the case of `C[C@H]1C[C@@H]2[C@H]([C@@H](O)C[C@@]3(C)[C@H]2CC[C@]3(O)C(=O)CO)[C@@]2(C)C=CC(=O)C=C12` [Methyl-prednisolone], the “mice in which remission was induced” value ([1]; chow-fed male and female mice with EAE (score 2.3±0.4), 200 μg/d oral methyl-prednisolone) is reported as 100%, the time to remission ([1]; chow-fed male and female mice with EAE, 200 μg/d oral methyl-prednisolone) is reported as 6 ± 2 days and the Cumulative disability [1, 3] is reported as 24.8 ± 6.9. The “EAE severity (decrease)” value [1, 3] was 0.8 ± 0.7, the “Remission (%)” value [1, 3] was 40% and the “Remission (days in)” value [1, 3] was 3.0 ± 4.1 days. The “Remission (days to)” value [1, 3] was 3.0 ± 0.0 days and the “EAE severity (initial)” value ([1]; female and male B10.PL mice, chow-fed, 0.5 (female) or 1.0 (male) nmol of steroid compound injected once, score at randomization) was 2.0 ± 0.0.

With `C=C1CC[C@H](O)C/C1=C/C=C1\CCC[C@]2(C)[C@@H]([C@H](C)CCCC(C)C)CC[C@@H]12` [vitamin D3] the “effect on clinical disability in mice with EAE” value ([1]; 1 μg/day vitamin D3, 28 day study) was “no effect”, the “cumulative disability (sum of daily disability scores; mean)” value ([1]; mice with EAE, 1 μg/day vitamin D3, 28 day study, both groups) was 71±18 and the mortality ([1]; mice with EAE, 1 μg/day vitamin D3, 28 day study, both groups (supplemented and un-supplemented)) was 9-14%. The serum calcium levels (Serum calcium analysis) was 9.6 ± 1.5 mg/dL and the “serum 25-(OH)D3” value [2] was 8217 nmol/L.

For “Natalizumab: an integrin-specific monoclonal antibody (mAb)”, the adverse risks (MS; human, in vivo) is listed as “increased the risk of cardiac problems and fatal progressive multifocal leukoencephalopathy” and the “slowing of disability progression” value (MS; over two years) is listed as about 42%.

In the case of glatiramer acetate, the disability progression (MS; RRMS, PPMS or SPMS patients) is listed as “did not slow disability progression” and the “reduction of the relapse rate” value (MS; some relapsing-remitting MS (RRMS)) is listed as about 35%.
